According to ChEMBL document CHEMBL5338775, “Discovery of a Novel Class of PROTACs as Potent and Selective Estrogen Receptor α Degraders to Overcome Endocrine-Resistant Breast Cancer In Vitro and In Vivo” (J Med Chem, 2023):
Active and inactive are the calls of the source. The rule behind the calls is not given here.

Tests used:
[1] = test system: T47D; experiment: cells; conditions: Homo sapiens, 72 h
[2] = cells; conditions: Homo sapiens, Tamoxifen-resistant LCC2 cell, 72 h
[3] = test system: T47D; experiment: cells; conditions: Homo sapiens, 72 h; remark: listed apart in the source
[4] = test system: T47D; experiment: cells; conditions: Homo sapiens, 72 h; remark: listed apart in the source
[5] = molecular target: T1, Estrogen receptor (Homo sapiens, UniProt P03372)
T1 sequence (P03372 whole entry): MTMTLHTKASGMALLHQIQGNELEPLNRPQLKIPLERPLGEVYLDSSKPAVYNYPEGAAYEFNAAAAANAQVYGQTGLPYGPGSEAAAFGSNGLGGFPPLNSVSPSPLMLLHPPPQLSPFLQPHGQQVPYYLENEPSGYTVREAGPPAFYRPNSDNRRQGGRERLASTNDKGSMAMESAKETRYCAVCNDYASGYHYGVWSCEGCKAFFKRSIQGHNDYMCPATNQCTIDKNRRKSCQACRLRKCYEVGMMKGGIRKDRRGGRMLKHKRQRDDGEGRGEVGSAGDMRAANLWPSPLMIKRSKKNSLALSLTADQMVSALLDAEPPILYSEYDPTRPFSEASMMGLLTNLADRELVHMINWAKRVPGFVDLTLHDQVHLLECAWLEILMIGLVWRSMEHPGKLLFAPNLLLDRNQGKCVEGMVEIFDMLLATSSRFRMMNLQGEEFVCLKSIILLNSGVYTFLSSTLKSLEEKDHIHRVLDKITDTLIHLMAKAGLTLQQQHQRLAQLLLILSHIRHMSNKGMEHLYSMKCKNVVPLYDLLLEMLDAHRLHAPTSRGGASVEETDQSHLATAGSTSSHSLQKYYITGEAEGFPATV

[6] = in vitro; conditions: human, MCF-10A cells
[7] = molecular target: T2, Estrogen receptor beta (Homo sapiens, UniProt Q92731); experiment: Binding affinity to ERbeta (unknown origin) assessed as relative binding affinity incubated for 2 hrs by fluorescence polarization assay relative to estradiol
[8] = molecular target: T2, Estrogen receptor beta
[9] = Selectivity index, ratio of Ki for ERalpha (unknown origin) to Ki for ERbeta (unknown origin)
[10] = Selectivity ratio of relative binding affinity for ERalpha (unknown origin) to relative binding affinity to ERbeta (unknown origin)
[11] = test system: MDA-MB-231; experiment: cells; conditions: Homo sapiens, MDA-MB-231, 72 h
[12] = test system: MCF7; experiment: cells; conditions: Homo sapiens, MCF7, 72 h
[13] = molecular target: Protein cereblon/Estrogen receptor (Homo sapiens) (UniProt P03372+Q96SW2); experiment: PROTAC activity at CRBN/wild type ERalpha in ER-positive human MCF7 cells assessed as induction of ERalpha degradation at 1 uM incubated for 12 hrs by Western blot analysis; type: cell-based
Chain of Protein cereblon/Estrogen receptor (Homo sapiens) (Q96SW2 whole entry, looked up, one chain of several): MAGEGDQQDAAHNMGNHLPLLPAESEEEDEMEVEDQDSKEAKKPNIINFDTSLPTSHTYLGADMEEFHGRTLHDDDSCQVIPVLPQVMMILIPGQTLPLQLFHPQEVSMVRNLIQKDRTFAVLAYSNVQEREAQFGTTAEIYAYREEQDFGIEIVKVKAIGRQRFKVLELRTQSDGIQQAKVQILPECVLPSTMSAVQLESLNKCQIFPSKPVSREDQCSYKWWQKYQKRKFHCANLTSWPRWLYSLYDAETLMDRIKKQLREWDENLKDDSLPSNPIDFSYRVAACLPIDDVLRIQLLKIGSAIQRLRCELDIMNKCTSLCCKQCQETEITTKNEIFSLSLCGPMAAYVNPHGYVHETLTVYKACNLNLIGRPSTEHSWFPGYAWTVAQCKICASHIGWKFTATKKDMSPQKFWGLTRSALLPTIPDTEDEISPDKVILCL

T2 sequence (Q92731 whole entry): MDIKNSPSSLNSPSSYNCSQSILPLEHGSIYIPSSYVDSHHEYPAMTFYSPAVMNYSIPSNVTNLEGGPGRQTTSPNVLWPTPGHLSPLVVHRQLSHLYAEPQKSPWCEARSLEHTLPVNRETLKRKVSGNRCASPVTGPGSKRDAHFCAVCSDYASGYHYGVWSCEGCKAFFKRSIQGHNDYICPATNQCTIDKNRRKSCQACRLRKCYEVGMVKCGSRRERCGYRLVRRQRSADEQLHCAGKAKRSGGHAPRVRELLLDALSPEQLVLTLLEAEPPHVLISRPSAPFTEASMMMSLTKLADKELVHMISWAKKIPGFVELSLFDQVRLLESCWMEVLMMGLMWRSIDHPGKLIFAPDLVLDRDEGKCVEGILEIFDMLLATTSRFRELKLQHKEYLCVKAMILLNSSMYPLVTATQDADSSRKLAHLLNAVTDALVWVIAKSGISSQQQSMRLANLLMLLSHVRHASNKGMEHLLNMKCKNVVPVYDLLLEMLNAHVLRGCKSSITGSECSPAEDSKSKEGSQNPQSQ

SMILES	IC50 [1] [µM]	IC50 [2] [µM]	IC50 [3] [µM]	IC50 [4] [µM]	Ki [5] [µM]	IC50 at 72 h [6] [µM]	RBA [7] [%]	Ki [8] [µM]	Ratio Ki [9]	Selectivity ratio [10]	IC50 [11] [µM]	IC50 [12] [µM]	Activity [13]
CC/C(=C(\c1ccc(O)cc1)c1ccc(OCCN(C)C)cc1)c1ccccc1 [AFIMOXIFENE]	9.89	22.2	1.95	11.6	–	–	–	–	–	–	–	–	–
CCN(c1ccc(OCCCCCCCC(=O)N[C@H](C(=O)N2C[C@H](O)C[C@H]2C(=O)NCc2ccc(-c3scnc3C)cc2)C(C)(C)C)cc1)S(=O)(=O)C1CC2OC1C(c1ccc(O)cc1)=C2c1ccc(O)cc1 (some centres undefined)	> 30	> 30	> 30	> 30	0.75	> 100	0.1	7.86	10.4	2.7	> 100	> 10	–
CCN(c1ccc(OCCCCCCCCCC(=O)N[C@H](C(=O)N2C[C@H](O)C[C@H]2C(=O)NCc2ccc(-c3scnc3C)cc2)C(C)(C)C)cc1)S(=O)(=O)C1CC2OC1C(c1ccc(O)cc1)=C2c1ccc(O)cc1 (some centres undefined)	> 30	> 30	> 30	> 30	3.38	> 100	0.08	9.83	2.9	0.75	> 100	> 10	–
O=C(COc1cccc2c1C(=O)N(C1CCC(=O)NC1=O)C2=O)NCCCCOc1ccc(N(CC(F)(F)F)S(=O)(=O)C2CC3OC2C(c2ccc(O)cc2)=C3c2ccc(O)cc2)cc1 (centres undefined)	> 50	> 50	> 50	> 50	3.38	> 100	0.07	11.2	3.32	0.86	> 100	> 50	inactive
CCN(c1ccc(OCCCCC(=O)N[C@H](C(=O)N2C[C@H](O)C[C@H]2C(=O)N[C@@H](C)c2ccc(-c3scnc3C)cc2)C(C)(C)C)cc1)S(=O)(=O)C1CC2OC1C(c1ccc(O)cc1)=C2c1ccc(O)cc1 (some centres undefined)	18.1	16.8	14.2	14.6	1.27	2.4	0.11	7.15	5.63	1.45	> 100	0.93	–
O=C(COc1ccc(C2CCC(=O)NC2=O)cc1)NCCCCNC(=O)COc1ccc(N(CC(F)(F)F)S(=O)(=O)C2CC3OC2C(c2ccc(O)cc2)=C3c2ccc(O)cc2)cc1 (centres undefined)	15.2	14.5	14.6	17.7	1.27	9.45	0.18	4.37	3.44	0.89	> 100	0.69	Active
CCN(c1ccc(OCCCCCC(=O)Nc2cccc3c2C(=O)N(C2CCC(=O)NC2=O)C3=O)cc1)S(=O)(=O)C1CC2OC1C(c1ccc(O)cc1)=C2c1ccc(O)cc1 (centres undefined)	> 100	> 100	> 100	> 100	0.97	> 100	0.18	4.37	4.52	1.17	> 100	> 100	inactive
O=C(COc1ccc(C2CCC(=O)NC2=O)cc1)NCCNC(=O)COc1ccc(N(CC(F)(F)F)S(=O)(=O)C2CC3OC2C(c2ccc(O)cc2)=C3c2ccc(O)cc2)cc1 (centres undefined)	21.4	21	17.3	19.7	0.97	13.7	0.16	4.91	5.08	1.31	> 100	1.14	Active
CCN(c1ccc(OCCCCC(=O)N[C@H](C(=O)N2C[C@H](O)C[C@H]2C(=O)NCc2ccc(-c3scnc3C)cc2)C(C)(C)C)cc1)S(=O)(=O)C1CC2OC1C(c1ccc(O)cc1)=C2c1ccc(O)cc1 (some centres undefined)	7.27	15.2	3.03	4.58	0.73	1.03	0.13	6.05	8.34	2.15	> 100	1.11	–
CCN(c1ccc(OCCCCCCC(=O)N[C@H](C(=O)N2C[C@H](O)C[C@H]2C(=O)N[C@@H](C)c2ccc(-c3scnc3C)cc2)C(C)(C)C)cc1)S(=O)(=O)C1CC2OC1C(c1ccc(O)cc1)=C2c1ccc(O)cc1 (some centres undefined)	> 30	> 30	> 30	> 30	2.03	> 100	0.07	11.2	5.53	1.43	> 100	0.57	–
CCN(c1ccc(OCCCCCCC(=O)N[C@H](C(=O)N2C[C@H](O)C[C@H]2C(=O)NCc2ccc(-c3scnc3C)cc2)C(C)(C)C)cc1)S(=O)(=O)C1CC2OC1C(c1ccc(O)cc1)=C2c1ccc(O)cc1 (some centres undefined)	> 30	> 30	> 30	> 30	1.07	> 100	0.12	6.55	6.13	1.58	> 100	0.43	–
CCN(c1ccc(OCCCCCCCCC(=O)N[C@H](C(=O)N2C[C@H](O)C[C@H]2C(=O)NCc2ccc(-c3scnc3C)cc2)C(C)(C)C)cc1)S(=O)(=O)C1CC2OC1C(c1ccc(O)cc1)=C2c1ccc(O)cc1 (some centres undefined)	> 30	> 30	> 30	> 30	5.08	> 100	0.07	11.2	2.21	0.57	> 100	> 10	–
O=C(COc1cccc2c1C(=O)N(C1CCC(=O)NC1=O)C2=O)NCCCCCCOc1ccc(N(CC(F)(F)F)S(=O)(=O)C2CC3OC2C(c2ccc(O)cc2)=C3c2ccc(O)cc2)cc1 (centres undefined)	> 30	> 30	25.4	> 30	1.85	> 100	0.1	7.86	4.26	1.1	> 100	11	Active
O=C(COc1ccc(C2CCC(=O)NC2=O)cc1)NCCCCCCNC(=O)COc1ccc(N(CC(F)(F)F)S(=O)(=O)C2CC3OC2C(c2ccc(O)cc2)=C3c2ccc(O)cc2)cc1 (centres undefined)	> 30	> 30	> 30	> 30	1.13	> 30	0.11	7.15	6.34	1.64	> 100	6.52	Active
O=C(COc1cccc2c1C(=O)N(C1CCC(=O)NC1=O)C2=O)NCCCCCCCCOc1ccc(N(CC(F)(F)F)S(=O)(=O)C2CC3OC2C(c2ccc(O)cc2)=C3c2ccc(O)cc2)cc1 (centres undefined)	> 50	> 50	> 50	> 50	1.45	> 100	0.16	4.91	3.39	0.88	> 100	> 50	inactive
